Reference: publication PMC9578392, “Safety, Tolerability, and Pharmacokinetics of the Novel Antiviral Agent Ensitrelvir Fumaric Acid, a SARS-CoV-2 3CL Protease Inhibitor, in Healthy Adults” (Antimicrobial Agents and Chemotherapy, 2022)

Assay: Treatment-emergent adverse events, multiple dose (part 2)
Format: in vivo, human
Conditions: Japanese, n = 8
Protocol: In part 1, Japanese participants were randomized to receive placebo or single dose of ensitrelvir (20, 70, 250, 500, 1,000, and 2,000 mg given to cohorts A, B, C, D, E, and J, respectively), suspended in 0.5% methylcellulose, in the fasted state. Additionally, in cohort C, the effect of food on the pharmacokinetics of ensitrelvir was investigated in a 2-group, 2-period crossover design by administering placebo or ensitrelvir (250 mg) in the fasted or fed (high-fat/high-calorie) state. In part 2, Japanese participants were randomized to receive placebo or multiple doses of ensitrelvir, suspended in 0.5% methylcellulose. The multiple-dose regimens were as follows: once-daily doses of ensitrelvir 375 mg on day 1 and 125 mg on days 2 to 5 (cohort F), or 750 mg on day 1 and 250 mg on days 2 to 6 (cohort G) in the fasted state. White participants were randomized to receive placebo or multiple doses of ensitrelvir. The multiple-dose regimens were as follows: once-daily doses of ensitrelvir 375 mg on day 1 and 125 mg on days 2 to 5 (cohort H). Each cohort included 11 participants. In cohort G, the effect of ensitrelvir on the pharmacokinetics of midazolam (syrup) was evaluated in an open label self-controlled crossover design. Midazolam 2 mg alone was administered 2 days prior to initiating ensitrelvir administration (on day −2) and midazolam was coadministered on day 6 with placebo or ensitrelvir in the fasted state to participants following once-daily doses for 5 days of placebo (days 1 to 5) or ensitrelvir (750 mg on day 1 and 250 mg on days 2–5).
The nature, frequency, and severity of TEAEs were evaluated and recorded.

[1] = Cohort F 375/125 mg, listed as ensitrelvir
[2] = Cohort G 750/250 mg + midazolam

Cn1cnc(Cn2c(=O)[nH]/c(=N\c3cc4cn(C)nc4cc3Cl)n(Cc3cc(F)c(F)cc3F)c2=O)n1 [Ensitrelvir, ensitrelvir fumaric acid]
0: Abdominal pain, Events (Cohort F 375/125 mg) | Abdominal pain, n (%) (Cohort F 375/125 mg) | Blood creatine phosphate increased, Events (Cohort F 375/125 mg) | Blood creatine phosphate increased, n (%) (Cohort F 375/125 mg) | Blood triglyceride increased, Events (Cohort F 375/125 mg) | Blood triglyceride increased, n (%) (Cohort F 375/125 mg) | C-reactive protein increased, Events (Cohort F 375/125 mg) | C-reactive protein increased, n (%) (Cohort F 375/125 mg) | Dizziness, Events (Cohort F 375/125 mg) | Dizziness, n (%) (Cohort F 375/125 mg) | Feeling hot, Events (Cohort F 375/125 mg) | Feeling hot, n (%) (Cohort F 375/125 mg) | General disorders and administration site conditions, Events (Cohort F 375/125 mg) | General disorders and administration site conditions, n (%) (Cohort F 375/125 mg) | Headache, Events (Cohort F 375/125 mg) | Headache, n (%) (Cohort F 375/125 mg) | Nausea, Events (Cohort F 375/125 mg) | Nausea, n (%) (Cohort F 375/125 mg) | Nervous system disorders, Events (Cohort F 375/125 mg) | Nervous system disorders, n (%) (Cohort F 375/125 mg) | Oropharyngeal pain, Events (Cohort F 375/125 mg) | Oropharyngeal pain, n (%) (Cohort F 375/125 mg) | Pyrexia, Events (Cohort F 375/125 mg) | Pyrexia, n (%) (Cohort F 375/125 mg) | Rash, Events (Cohort F 375/125 mg) | Rash, n (%) (Cohort F 375/125 mg) | Respiratory, thoracic, and mediastinal disorders, Events (Cohort F 375/125 mg) | Respiratory, thoracic, and mediastinal disorders, n (%) (Cohort F 375/125 mg) | Skin and subcutaneous tissue disorders, Events (Cohort F 375/125 mg) | Skin and subcutaneous tissue disorders, n (%) (Cohort F 375/125 mg) | Somnolence, Events (Cohort F 375/125 mg) | Somnolence, n (%) (Cohort F 375/125 mg) | Vomiting, Events (Cohort F 375/125 mg) | Vomiting, n (%) (Cohort F 375/125 mg) | Abdominal pain, Events [2] | Abdominal pain, n (%) [2]
12: Participants with any TEAE, Events (Cohort F 375/125 mg)
7: High-density lipoprotein cholesterol decreased, Events (Cohort F 375/125 mg) | Investigations, Events (Cohort F 375/125 mg) | High-density lipoprotein cholesterol decreased, Events [2]
8: Gastrointestinal disorders, Events [2]
4/8: Diarrhea, n (%) [1]
1 (12.5): Blood creatine phosphate increased, n (%) [2] | C-reactive protein increased, n (%) [2] | Dizziness, n (%) [2] | Feeling hot, n (%) [2]
5: Diarrhea, Events (Cohort F 375/125 mg) | Gastrointestinal disorders, Events (Cohort F 375/125 mg)
7 (87.5): High-density lipoprotein cholesterol decreased, n (%) (Cohort F 375/125 mg) | Investigations, n (%) (Cohort F 375/125 mg) | Participants with any TEAE, n (%) (Cohort F 375/125 mg) | High-density lipoprotein cholesterol decreased, n (%) [2] | Investigations, n (%) [2]
2: Blood triglyceride increased, Events [2] | General disorders and administration site conditions, Events [2]
4 (50.0): Diarrhea, n (%) (Cohort F 375/125 mg) | Gastrointestinal disorders, n (%) (Cohort F 375/125 mg) | Diarrhea, n (%) [2] | Gastrointestinal disorders, n (%) [2] | Headache, n (%) [2]
6: Diarrhea, Events [2] | Headache, Events [2]
2 (25.0): Blood triglyceride increased, n (%) [2] | General disorders and administration site conditions, n (%) [2]
1: Blood creatine phosphate increased, Events [2] | C-reactive protein increased, Events [2] | Dizziness, Events [2] | Feeling hot, Events [2] | Nausea, Events [2]
11: Investigations, Events [2]
7/8: High-density lipoprotein cholesterol decreased, n (%) [1]
